Active and inactive are the calls of the source. The calls are words filed in the database; no cut-off is given here.
Key:
Huh-7 [1] = assay: Antiproliferative activity against human Huh-7 cells incubated for 7 to 14 days by methylene blue dye based anchorage independent growth assay; assay type: functional, cell-based; details: time 7-14 day
CFPAC-1 = assay: Antiproliferative activity against C32 in human CFPAC-1 cells at 3 uM incubated for 21 day; assay type: functional, cell-based
SNU-423 [2] = assay: Antiproliferative activity against human SNU-423 cells incubated for 7 to 14 days by methylene blue dye based anchorage independent growth assay; assay type: functional, cell-based; details: time 7-14 day
[3] = biological target: T1, Protein cereblon/Focal adhesion kinase 1 (Homo sapiens, UniProt Q05397+Q96SW2); assay: Protac activity at CRBN/PTK2 in human HuCCT-1 cells assessed as induction of PTK2 degradation incubated for 18 hrs by protein capillary electrophoresis method relative to control; assay type: cell-based
Target sequence in this assay (Q05397 2-1052 limits assumed): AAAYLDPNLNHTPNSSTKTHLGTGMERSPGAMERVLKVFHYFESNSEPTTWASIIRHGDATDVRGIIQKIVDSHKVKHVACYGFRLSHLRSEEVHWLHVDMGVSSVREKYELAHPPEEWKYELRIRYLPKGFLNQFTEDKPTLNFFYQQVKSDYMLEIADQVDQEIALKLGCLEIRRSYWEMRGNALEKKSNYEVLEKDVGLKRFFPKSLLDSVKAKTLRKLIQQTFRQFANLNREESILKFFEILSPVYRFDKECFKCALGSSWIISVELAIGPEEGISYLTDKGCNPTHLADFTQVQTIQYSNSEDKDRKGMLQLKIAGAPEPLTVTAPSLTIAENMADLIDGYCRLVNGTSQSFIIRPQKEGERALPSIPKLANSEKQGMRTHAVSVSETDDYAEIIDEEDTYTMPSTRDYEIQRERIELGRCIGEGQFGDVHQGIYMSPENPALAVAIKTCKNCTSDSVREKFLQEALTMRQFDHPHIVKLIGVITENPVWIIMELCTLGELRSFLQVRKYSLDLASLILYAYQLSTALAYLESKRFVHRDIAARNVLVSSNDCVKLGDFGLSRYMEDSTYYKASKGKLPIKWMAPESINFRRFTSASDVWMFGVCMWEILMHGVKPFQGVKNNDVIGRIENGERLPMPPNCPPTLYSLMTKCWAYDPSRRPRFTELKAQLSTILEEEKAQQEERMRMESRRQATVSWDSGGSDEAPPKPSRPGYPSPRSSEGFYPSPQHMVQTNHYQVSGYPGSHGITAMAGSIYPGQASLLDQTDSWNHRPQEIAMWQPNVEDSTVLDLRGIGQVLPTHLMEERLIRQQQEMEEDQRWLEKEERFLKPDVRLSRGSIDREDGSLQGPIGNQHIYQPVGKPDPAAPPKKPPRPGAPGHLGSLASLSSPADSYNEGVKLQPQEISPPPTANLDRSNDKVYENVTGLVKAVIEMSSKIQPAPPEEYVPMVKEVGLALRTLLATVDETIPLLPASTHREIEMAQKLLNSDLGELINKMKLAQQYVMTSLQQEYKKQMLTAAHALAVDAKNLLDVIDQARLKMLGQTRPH
Target sequence in this assay (Q96SW2 whole entry partner): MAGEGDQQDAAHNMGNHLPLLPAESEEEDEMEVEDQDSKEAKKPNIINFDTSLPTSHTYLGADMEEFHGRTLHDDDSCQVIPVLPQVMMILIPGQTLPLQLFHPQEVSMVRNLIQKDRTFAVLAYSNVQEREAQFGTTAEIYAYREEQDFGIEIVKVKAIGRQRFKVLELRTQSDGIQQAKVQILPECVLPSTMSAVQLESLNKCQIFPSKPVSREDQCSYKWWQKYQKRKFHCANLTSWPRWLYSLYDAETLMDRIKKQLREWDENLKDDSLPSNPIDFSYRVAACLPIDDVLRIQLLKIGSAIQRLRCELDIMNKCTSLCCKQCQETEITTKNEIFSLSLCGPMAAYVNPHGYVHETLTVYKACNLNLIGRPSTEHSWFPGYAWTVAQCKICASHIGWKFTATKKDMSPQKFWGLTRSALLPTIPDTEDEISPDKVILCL

HuCCT-1 [4] = assay: Antiproliferative activity against human HuCCT-1 cells incubated for 7 to 14 days by methylene blue dye based anchorage independent growth assay; assay type: functional, cell-based; details: time 7-14 day
HuCCT-1 [5] = assay: cells; details: Homo sapiens, HuCCT-1, 144 h, read-out: pIC50 (converted)
Description: Antiproliferative activity against human HuCCT-1 cells incubated for 6 days by CellTiter-Glo luminescent cell viability assay

SNU-387 [6] = assay: cells; details: Homo sapiens, SNU-387, 144 h, read-out: pIC50 (converted)
Description: Antiproliferative activity against human SNU-387 cells incubated for 6 days by CellTiter-Glo luminescent cell viability assay

HepG2 [7] = assay: cells; details: Homo sapiens, HepG2, 144 h, read-out: pIC50 (converted)
Description: Antiproliferative activity against human HepG2 cells incubated for 6 days by CellTiter-Glo luminescent cell viability assay

[8] = Fraction unbound in 10% FCS; assay type: ADME, cell-free, Bos taurus; details: cattle, 10% fetal calf serum (FCS)
HuH-1 = assay: Antiproliferative activity against human HuH-1 cells incubated for 7 to 14 days by methylene blue dye based anchorage independent growth assay; assay type: functional, cell-based; details: time 7-14 day
SNU-398 [9] = assay: cells; details: Homo sapiens, SNU-398, 144 h, read-out: pIC50 (converted)
Description: Antiproliferative activity against human SNU-398 cells incubated for 6 days by CellTiter-Glo luminescent cell viability assay

HLE [10] = assay: cells; details: Homo sapiens, 144 h, read-out: pIC50 (converted)
Description: Antiproliferative activity against human HLE cells incubated for 6 days by CellTiter-Glo luminescent cell viability assay

A549 [11] = assay: Antiproliferative activity against C32 in human A549 cells at 3 uM incubated for 21 day; assay type: functional, cell-based
cells [12] = details: Homo sapiens, HuH-1, 144 h, read-out: pIC50 (converted)
Description: Antiproliferative activity against human HuH-1 cells incubated for 6 days by CellTiter-Glo luminescent cell viability assay

A549 [13] = assay: Induction of general kinase degradation in human A549 cells at 3 uM incubated for 18 hrs by mass spectrometry based total proteome analysis; assay type: functional, cell-based
Hep3B = assay: Antiproliferative activity against human Hep3B2.1-7 cells incubated for 7 to 14 days by methylene blue dye based anchorage independent growth assay; assay type: functional, cell-based; details: time 7-14 day
HLE [14] = assay: Antiproliferative activity against human HLE cells incubated for 7 to 14 days by methylene blue dye based anchorage independent growth assay; assay type: functional, cell-based; details: time 7-14 day
SNU-423 [15] = assay: cells; details: Homo sapiens, SNU-423, 144 h, read-out: pIC50 (converted)
Description: Antiproliferative activity against human SNU-423 cells incubated for 6 days by CellTiter-Glo luminescent cell viability assay

[16] = Permeability in human Caco-2 cells; assay type: ADME, cell-based
[17] = biological target: Retinal rod rhodopsin-sensitive cGMP 3',5'-cyclic phosphodiesterase subunit delta (Homo sapiens) (UniProt O43924); assay: Induction of PDE6D degradation in human A549 cells at 100 nM to 10000 nM incubated for 18 hrs by immunoblot analysis based protein capillary electrophoresis; assay type: cell-based
Chain of Retinal rod rhodopsin-sensitive cGMP 3',5'-cyclic phosphodiesterase subunit delta (Homo sapiens) (O43924 whole entry): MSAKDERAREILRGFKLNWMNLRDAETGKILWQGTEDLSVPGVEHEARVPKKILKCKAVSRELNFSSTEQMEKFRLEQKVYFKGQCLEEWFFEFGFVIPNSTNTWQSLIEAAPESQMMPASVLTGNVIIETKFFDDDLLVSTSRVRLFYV

[18] = biological target: T1, Protein cereblon/Focal adhesion kinase 1; assay: Protac activity at CRBN/PTK2 in human A549 cells assessed as induction of PTK2 degradation at 1 to 100000 nM incubated for 18 hrs in presence of NEDD8 inhibitor […] by protein capillary electrophoresis method; assay type: cell-based; details: dose 1-100000 nM
Target sequence in this assay (Q05397 2-1052 limits assumed): as the sequence (Q05397 2-1052 limits assumed) above
Target sequence in this assay (Q96SW2 whole entry partner): as the sequence (Q96SW2 whole entry partner) above

[19] = biological target: Retinal rod rhodopsin-sensitive cGMP 3',5'-cyclic phosphodiesterase subunit delta (Homo sapiens) (UniProt O43924); assay: Induction of PDE6D degradation in human A549 cells at 3 uM incubated for 18 hrs by mass spectrometry based total proteome analysis; assay type: cell-based
[20] = biological target: T1, Protein cereblon/Focal adhesion kinase 1; assay: Protac activity at CRBN/PTK2 in human Hep3B2.1-7 cells assessed as time required for maximal induction of PTK2 degradation at 3 uM incubated for up to 80 hrs by protein capillary electrophoresis method; details: time hrs <=80
Target sequence in this assay (Q05397 2-1052 limits assumed): as the sequence (Q05397 2-1052 limits assumed) above
Target sequence in this assay (Q96SW2 whole entry partner): as the sequence (Q96SW2 whole entry partner) above

Focal adhesion kinase 1 = Focal adhesion kinase 1 (Homo sapiens, UniProt Q05397); assay: Inhibition of human PTK2 (411-689 residues) expressed in Hi-5 cells
Chain of Focal adhesion kinase 1 (Q05397 whole entry, the tested form may be a part): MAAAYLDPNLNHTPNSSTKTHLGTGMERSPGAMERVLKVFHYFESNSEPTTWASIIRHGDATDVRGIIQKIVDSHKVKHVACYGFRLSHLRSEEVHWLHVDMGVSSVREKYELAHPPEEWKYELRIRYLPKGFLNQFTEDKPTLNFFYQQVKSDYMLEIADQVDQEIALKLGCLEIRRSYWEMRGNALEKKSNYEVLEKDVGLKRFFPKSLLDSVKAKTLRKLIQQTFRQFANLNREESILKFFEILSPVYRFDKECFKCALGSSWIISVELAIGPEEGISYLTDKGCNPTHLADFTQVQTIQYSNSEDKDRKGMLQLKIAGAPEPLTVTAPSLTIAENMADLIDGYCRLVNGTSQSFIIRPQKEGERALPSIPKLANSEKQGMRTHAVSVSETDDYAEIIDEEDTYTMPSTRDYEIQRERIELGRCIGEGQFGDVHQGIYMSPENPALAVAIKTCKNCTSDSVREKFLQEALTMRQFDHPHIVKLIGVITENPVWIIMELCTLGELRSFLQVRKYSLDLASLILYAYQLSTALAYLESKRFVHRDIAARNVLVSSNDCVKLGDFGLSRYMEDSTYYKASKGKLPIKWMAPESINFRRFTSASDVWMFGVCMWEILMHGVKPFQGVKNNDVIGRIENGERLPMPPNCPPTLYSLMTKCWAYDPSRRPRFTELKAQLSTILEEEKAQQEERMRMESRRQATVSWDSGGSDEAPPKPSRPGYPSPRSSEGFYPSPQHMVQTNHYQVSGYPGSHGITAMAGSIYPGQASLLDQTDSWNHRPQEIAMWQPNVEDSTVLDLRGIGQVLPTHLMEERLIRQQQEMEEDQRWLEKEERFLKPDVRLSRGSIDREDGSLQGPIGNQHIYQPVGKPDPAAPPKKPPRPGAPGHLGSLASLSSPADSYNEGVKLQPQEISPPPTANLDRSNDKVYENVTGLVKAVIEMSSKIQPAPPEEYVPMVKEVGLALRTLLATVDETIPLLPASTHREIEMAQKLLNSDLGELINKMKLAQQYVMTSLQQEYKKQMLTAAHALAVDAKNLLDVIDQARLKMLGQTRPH

SNU-387 [21] = assay: Antiproliferative activity against human SNU-387 cells incubated for 7 to 14 days by methylene blue dye based anchorage independent growth assay; assay type: functional, cell-based; details: time 7-14 day
HepG2 [22] = assay: Antiproliferative activity against human HepG2 cells incubated for 7 to 14 days by methylene blue dye based anchorage independent growth assay; assay type: functional, cell-based; details: time 7-14 day
HLF1 = assay: Antiproliferative activity against human HLF1 cells incubated for 7 to 14 days by methylene blue dye based anchorage independent growth assay; assay type: functional, cell-based; details: time 7-14 day
[23] = biological target: T1, Protein cereblon/Focal adhesion kinase 1; assay: Protac activity at CRBN/PTK2 in human HepG2 cells assessed as induction of PTK2 degradation incubated for 18 hrs by protein capillary electrophoresis method; assay type: cell-based
Target sequence in this assay (Q05397 whole entry): as the sequence (Q05397 whole entry, the tested form may be a part) above
Target sequence in this assay (Q96SW2 whole entry): as the sequence (Q96SW2 whole entry partner) above

SK-HEP1 [24] = assay: Antiproliferative activity against human SK-HEP1 cells incubated for 7 to 14 days by methylene blue dye based anchorage independent growth assay; assay type: functional, cell-based; details: time 7-14 day
[25] = biological target: T1, Protein cereblon/Focal adhesion kinase 1; assay: Protac activity at CRBN/PTK2 in human Hep3B2.1-7 cells assessed as induction of PTK2 degradation incubated for 18 hrs by protein capillary electrophoresis method relative to control; assay type: cell-based; details: Hep3B
Target sequence in this assay (Q05397 2-1052 limits assumed): as the sequence (Q05397 2-1052 limits assumed) above
Target sequence in this assay (Q96SW2 whole entry partner): as the sequence (Q96SW2 whole entry partner) above

HSC-3 = assay: Antiproliferative activity against HSC-3 in human […] cells at 3 uM incubated for 21 days; assay type: functional, cell-based; details: time 21.0 day
Huh-7 [26] = assay: cells; details: Homo sapiens, Huh-7, 144 h, read-out: pIC50 (converted)
Description: Antiproliferative activity against human Huh-7 cells incubated for 6 days by CellTiter-Glo luminescent cell viability assay

cells [27] = details: Homo sapiens, HLF1, 144 h, read-out: pIC50 (converted)
Description: Antiproliferative activity against human HLF1 cells incubated for 6 days by CellTiter-Glo luminescent cell viability assay

C32 = assay: Antiproliferative activity against C32 in human […] cells at 3 uM incubated for 21 days; assay type: functional, cell-based; details: time 21.0 day
SNU-398 [28] = assay: Antiproliferative activity against human SNU-398 cells incubated for 7 to 14 days by methylene blue dye based anchorage independent growth assay; assay type: functional, cell-based; details: time 7-14 day
cells [29] = details: Homo sapiens, Hep3B, 144 h, read-out: pIC50 (converted)
Description: Antiproliferative activity against human Hep3B2.1-7 cells incubated for 6 days by CellTiter-Glo luminescent cell viability assay

SK-HEP1 [30] = assay: cells; details: Homo sapiens, SK-HEP1, 144 h, read-out: pIC50 (converted)
Description: Antiproliferative activity against human SK-HEP1 cells incubated for 6 days by CellTiter-Glo luminescent cell viability assay

[31] = Stability in EMEM cell assay buffer containing 10% FCS; assay type: physicochemical; details: cattle
[32] = biological target: T2, von Hippel-Lindau disease tumor suppressor/Focal adhesion kinase 1 (Homo sapiens, UniProt Q05397+P40337); assay: Protac activity at VHL/PTK2 in human SNU-398 cells assessed as induction of PTK2 degradation incubated for 18 hrs by protein capillary electrophoresis method; assay type: cell-based
Target sequence in this assay (Q05397 whole entry): as the sequence (Q05397 whole entry, the tested form may be a part) above
Target sequence in this assay (P40337 whole entry): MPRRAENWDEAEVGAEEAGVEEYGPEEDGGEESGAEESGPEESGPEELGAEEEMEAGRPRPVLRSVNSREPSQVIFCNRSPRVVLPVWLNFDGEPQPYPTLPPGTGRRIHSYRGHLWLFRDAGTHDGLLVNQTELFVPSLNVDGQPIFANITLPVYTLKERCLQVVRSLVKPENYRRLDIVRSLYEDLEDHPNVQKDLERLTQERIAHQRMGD

[33] = biological target: T2, von Hippel-Lindau disease tumor suppressor/Focal adhesion kinase 1; assay: Protac activity at VHL/PTK2 in human Hep3B2.1-7 cells assessed as induction of PTK2 degradation incubated for 18 hrs by protein capillary electrophoresis method relative to control; assay type: cell-based; details: Hep3B
Target sequence in this assay (P40337 whole entry partner): as the sequence (P40337 whole entry) above
Target sequence in this assay (Q05397 2-1052 limits assumed): as the sequence (Q05397 2-1052 limits assumed) above

[34] = biological target: T2, von Hippel-Lindau disease tumor suppressor/Focal adhesion kinase 1; assay: Protac activity at VHL/PTK2 in human A549 cells assessed as induction of PTK2 degradation incubated for 18 hrs by protein capillary electrophoresis method; assay type: cell-based
Target sequence in this assay (Q05397 whole entry): as the sequence (Q05397 whole entry, the tested form may be a part) above
Target sequence in this assay (P40337 whole entry): as the sequence (P40337 whole entry) above

SMILES	Activity (Huh-7 [1])	Activity (CFPAC-1)	Activity (SNU-423 [2])	Activity (HuCCT-1 [4])	IC50 (HuCCT-1 [5]) [µM]	IC50 (SNU-387 [6]) [µM]	IC50 (HepG2 [7]) [µM]	fraction unbound [8]	Activity (HuH-1)	IC50 (SNU-398 [9]) [µM]	IC50 (HLE [10]) [µM]	Activity (A549 [11])	IC50 (cells [12]) [µM]	Activity (A549 [13])	Activity (Hep3B)	Activity (HLE [14])	IC50 (SNU-423 [15]) [µM]	permeability [16]	Activity [17]	Activity [19]	also measured
COc1cc(C(=O)NCCOCCOCCOCCC(=O)Nc2cccc3c2C(=O)N(C2CCC(=O)NC2=O)C3=O)ccc1Nc1ncc(C(F)(F)F)c(Oc2cccc3c2C(=O)CC3)n1 (centres undefined)	inactive	inactive	inactive	inactive	> 25.1	> 25.1	> 25.1	0.04	inactive	> 25.1	> 25.1	inactive	25.1	inactive	inactive	inactive	20	Impermeable	inactive	inactive	Emax [3]: 90%; Activity [18]: inactive; TIME [20]: 5 h; IC50 (Focal adhesion kinase 1): 18 nM; Activity (SNU-387 [21]): inactive; Activity (HepG2 [22]): inactive; Activity (HLF1): inactive; pDC50 [23]: 7.5; Activity (SK-HEP1 [24]): inactive; Emax [25]: 96%; Activity (HSC-3): inactive; IC50 (Huh-7 [26]): > 25.1 µM; IC50 (cells [27]): > 25.1 µM; Activity (C32): inactive; Activity (SNU-398 [28]): inactive; IC50 (cells [29]): 25.1 µM; IC50 (SK-HEP1 [30]): 1.58 µM; Stabilty [31]: Unstable
COc1cc(C(=O)NCCOCCOCCOCC(=O)N[C@H](C(=O)N2C[C@H](O)C[C@H]2C(=O)NCc2ccc(-c3scnc3C)cc2)C(C)(C)C)ccc1Nc1ncc(C(F)(F)F)c(Oc2cccc3c2C(=O)CC3)n1	inactive	inactive	inactive	inactive	6.31	5.01	> 25.1	0.113	inactive	7.94	10	inactive	20	inactive	inactive	inactive	6.31	Impermeable	Active	Active	pDC50 [32]: 8; Emax [33]: 59%; pDC50 [34]: 6.7; IC50 (Focal adhesion kinase 1): 19 nM; Activity (SNU-387 [21]): inactive; Activity (HepG2 [22]): inactive; Activity (HLF1): inactive; Activity (SK-HEP1 [24]): inactive; Activity (HSC-3): inactive; IC50 (Huh-7 [26]): 3.98 µM; IC50 (cells [27]): > 25.1 µM; Activity (C32): inactive; Activity (SNU-398 [28]): inactive; IC50 (cells [29]): 6.31 µM; IC50 (SK-HEP1 [30]): 7.94 µM; Stabilty [31]: Stable
